Experimental findings from patent US20240165196A1, “Beta-Lactamase Inhibitors” (VIB VZW, priority 2021, published 2024) are described below.

Values after ≈ are worked out from the molar mass of the structure shown. Peptide text beside a SMILES is read from it.

Test [1] relates to E. coli strain UZ_TEM104. The class given is cell-based. Conditions: peptide alone. From the text: In order to generate a synthetic amyloid peptide capable of inactivating the TEM-1 beta-lactamase enzyme by capitalizing on its aggregation propensity, we applied a previously developed design pattern for synthetic aggregating sequences. This involves a tandem repeat of the APR, each instance flanked by charged amino acids for solubility and separated by a short peptide linker^19,20,23 (FIG. 2G). Previous work has shown that good bacterial uptake can be achieved using one positively charged arginine residue on the N-terminal side of each APR in the tandem and two arginine residues on the C-terminal side. This has the additional benefit of reducing the self-aggregation of the peptides and increasing their solubility prior to target engagement. As before, we employed a single Pro residue as a linker between the APRs and focused on an APR length of seven, extending shorter APRs to this length by incorporating flanking amino acids unless they were obvious aggregation breakers (Arg, Lys, Asp, Glu or Pro, see Table 1). We obtained these peptides from solid phase synthesis, followed by HPLC purification to a purity judged by reverse phase chromatography of at least 90% (Genscript).
Determination of MIC values using the broth microdilution in the 96-well plate (BD Biosciences, Belgium) according to the EUCAST guideline, which was performed in 96-well polystyrene flat bottom microtiter plates (BD Biosciences). Briefly, a single colony was inoculated into 5 mL Difco™ Mueller Hinton Broth (BD Biosciences Ref 275730) and grown to the end-exponential growth phase in a shaking incubator at 37° C. Cultures were subsequently diluted to an MacFarland (0.5 optical density) then the culture was diluted to reach 10^6 CFU/mL in fresh MHB medium. 50 μl of different concentration of peptides ranging from 128 to 2 μg/mL were serially diluted to the sterile 96-well plate in MHB. 50 μL of the diluted bacteria in MHB were pipetted into 96-well plates to reach the final volume of 100 μL. The bacteria grown with the maximum concentration of carrier and medium were considered as positive and negative controls, respectively. The plates were statically incubated overnight at 37° C. to allow bacterial growth. OD was measured at 590 nm a multipurpose ultraviolet-visible plate reader, and the absorbance of the growth bacteria was measured using absorbance reader. Bacterial growth was also visually inspected and agreed well with the OD reading.

The test system of test [2] is E. coli strain UZ_TEM104. It counts as cell-based. Conditions: in presence of additive at 50 μg/mL.
For test [3], the target named is T1, TEM-1 (Escherichia coli, UniProt P62593).
T1 construct: DNA TEM (870 bp) or SHV (894 bp) were each sub-cloned into a PUC57 vector cloning site NdeI/XhoI; His-tag (N); TEV cleavage site (N); made in house; host or cells: E. coli BL21 (DE3)
T1 sequence (P62593 24-286 limits assumed): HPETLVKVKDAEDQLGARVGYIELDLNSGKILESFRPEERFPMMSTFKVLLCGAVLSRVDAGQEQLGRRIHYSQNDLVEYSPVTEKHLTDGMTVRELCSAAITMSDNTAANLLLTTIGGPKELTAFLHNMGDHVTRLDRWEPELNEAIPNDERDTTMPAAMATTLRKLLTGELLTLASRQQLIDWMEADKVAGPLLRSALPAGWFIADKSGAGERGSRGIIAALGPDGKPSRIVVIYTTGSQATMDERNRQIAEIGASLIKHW
Put plainly: thermal denaturation with right-angle/static light scattering (aggregation) in presence of beta-lactamase inhibitors. It counts as biochemical, E. coli. Particulars: TEM-1, dose titration of inhibitor.
Source text: (FIG. 1E) Heat denaturation of TEM-1 monitored by intrinsic fluorescence plotted as the BaryCentric Mean (BCM) of the fluorescence emission spectrum in the presence (red) and absence (blue) of tazobactam. […] (FIG. 1F) Temperature-dependent evolution of the Right-Angle Light Scattering (RALS) intensity measured simultaneously with the data in FIG. 1G to monitor protein aggregation. […] (FIGS. 1G, 1H, 1I, and 1J) Same data as in FIG. 1F, but showing a dose-titration of different beta-lactamase inhibitors: tazobactam (FIG. 1G), clavulanate (FIG. 1H), vaborbactam (FIG. 1I) and avibactam (FIG. 1J). Each curve a single experiment, which was repeated in triplicate.
Then, we performed a thermal denaturation whilst simultaneously monitoring the intrinsic fluorescence as a measure of the folding status of the molecule (FIG. 1E), and the static light scattering as a measure of aggregation (FIG. 1F).

For test [4], the system named is E. coli TEM-206. The test is described as follows: antimicrobial susceptibility testing, VITEK 2 AST Cards. The class given is cell-based. The procedure: (§1) Beta-lactamase clinical samples were collected from University Hospitals Leuven and tested for ESBL production using the disk diffusion method^61. The beta-lactamase reference isolates were purchased from IHMA International Health management associates. Bacterial strains were cultivated in Mueller Hinton Broth (MHB, Difco) at 37° C. Whenever required growth media were supplemented with appropriate antibiotic to the medium or plates (kanamycin 30 μg/mL, L-arabinose 0.5 mg/mL, and IPTG 1 mM/mL). Escherichia coli BL21 (Thermo Fisher Scientific, Belgium) was used for cloning and plasmid amplification. For selection of antibiotic resistance colonies, E. coli carrying plasmids was grown in LB agar plates supplemented with the relevant antibiotic. Bacterial CFU counting was done on blood agar plates (BD Biosciences, Belgium) or MHA agar plates. Species identification and antibiograms for all clinical isolates were performed using MALDI-Tof and VITEK® 2 automated system (BioMérieux, France).

For test [5], the system named is E. coli NDM ? b. The test is described as above. It counts as cell-based. As to the method: as §1
Test [6] relates to E. coli NDM ? a. The description is as above. The class given is cell-based. As to the method: as §1
Test [7] has as its system E. coli SH ? (APHA). The description is as above. It counts as cell-based. The procedure: as §1
The subject of test [8] is E. coli TEM-1 ?
The class given is cell-based. The procedure:
as §1

The subject of test [9] is E. coli TEM-104. It counts as cell-based. The procedure:
as §1

In test [10] the test system is E. coli TEM-30. It counts as cell-based. As to the method:
as §1

The subject of test [11] is E. coli TEM-148. It counts as cell-based. The procedure:
as §1
For Interpretation in this document: key: S, susceptible; I, intermediate; R, resistant.

Ac-RAGWFIARRPRAGWFIARR-NH2 [TEM5.0] came in with an MIC peptide in test [1] of 100 µg/mL. In addition, in [2], the MIC penicillin came out at 1600 µg/mL.

In turn, Ac-RGIIAALGRRPRGIIAALGRR-NH2 [TEM6.0] showed an MIC peptide in test [1] of more than 100 µg/mL. Also, the MIC penicillin in [2] was 1600 µg/mL.

Consider `NC(=O)[C@@H]1CC[C@@H]2CN1C(=O)N2OS(=O)(=O)O` [avibactam], for which the “aggregation of the enzyme (static light scattering), dose-response” value (“aggregation of the enzyme” for short) in [3] was “reduce the aggregation of the enzyme in a dose-responsive manner”.

For the compound `CC(=O)N[C@@H](CCCNC(=N)N)C(=O)N[C@@H](Cc1ccccc1)C(=O)N[C@@H](Cc1ccccc1)C(=O)N[C@@H](C)C(=O)N[C@@H](C)C(=O)N[C@@H](Cc1ccccc1)C(=O)N[C@@H](CS)C(=O)N[C@@H](CC(C)C)C(=O)N[C@@H](CCCNC(=N)N)C(=O)N[C@@H](CCCNC(=N)N)C(=O)N[C@@H](CCCNC(=N)N)C(=O)N1CCC[C@H]1C(=O)N[C@@H](Cc1ccccc1)C(=O)N[C@@H](Cc1ccccc1)C(=O)N[C@@H](C)C(=O)N[C@@H](C)C(=O)N[C@@H](Cc1ccccc1)C(=O)N[C@@H](CS)C(=O)N[C@@H](CC(C)C)C(=O)N[C@@H](CCCNC(=N)N)C(=O)N[C@@H](CCCNC(=N)N)C(N)=O` [TEM1.0] (Ac-RFFAAFCLRRRPFFAAFCLRR-NH2), in test [2], the MIC penicillin was 1600 µg/mL.

The term MIC denotes the least concentration at which growth counts as inhibited. The low end stands for inhibition by little substance, the high end for a need for much substance. In the case of `CO/N=C(\C(=O)N[C@@H]1C(=O)N2C(C(=O)O)=C(COC(C)=O)CS[C@H]12)c1csc(N)n1` [Cef ? axime], the Interpretation entry in test [4] is “R”; in test [5] it was “R”; in test [6], “R”; in [7], “R”; in test [8], “R”; in [9], “S”. For the same compound, the Interpretation result in test [10] and in [11] was “R” each time. The MIC in test [4] was not below 64 µg/mL; in test [5] it was not below 64 µg/mL; in test [6], not below 64 µg/mL; in test [7], not below 64 µg/mL; in test [8] it was not below 64 µg/mL; in test [9] it was not above 1 µg/mL. The MIC in [10] was 4 µg/mL (≈ 8.78 µM); in test [11], 16 µg/mL (≈ 35.1 µM).

On to `O=C1CN(/N=C/c2ccc([N+](=O)[O-])o2)C(=O)N1` [Nitrofuran ?], for which the Interpretation entry in test [4] is on record as “S”; in test [5] it was “R”; in test [6], “R”; in test [7], “S”; in [8], “S”; in test [9], “S”. For the same compound, the Interpretation result in test [10] and in test [11] was “S” throughout. Further, the MIC in test [5] was 64 µg/mL (≈ 269 µM); in test [6], 64 µg/mL (≈ 269 µM); in test [7], not above 16 µg/mL; in test [8], not above 16 µg/mL; in [10] it was 32 µg/mL (≈ 134 µM); in test [11] it was 32 µg/mL (≈ 134 µM).

`O=C(O)[C@H]1/C(=C/CO)O[C@@H]2CC(=O)N21` [clavulanate]: the “aggregation of the enzyme” value in test [3] is recorded as “reduce the aggregation of the enzyme in a dose-responsive manner”.

For `CO/N=C(\C(=O)N[C@@H]1C(=O)N2C(C(=O)[O-])=C(C[N+]3(C)CCCC3)CS[C@H]12)c1csc(N)n1` [C ? ime], the Interpretation result in test [4] is “R”; in test [5], “R”; in test [6] it was “R”; in test [7], “R”; in [8] it was “R”; in test [9], “S”. For the same compound, the minimum inhibitory concentration (MIC) in [4] was not below 64 µg/mL; in [5], not below 64 µg/mL; in test [6], not below 64 µg/mL; in test [7] it was 16 µg/mL (≈ 33.3 µM); in [8], not below 64 µg/mL; in test [9] it was not above 1 µg/mL. Further, the minimal inhibitory concentration (MIC) is not above 1 µg/mL in test [10] and 2 µg/mL (≈ 4.16 µM) in [11].

Compound Ac-RLLTLASRRPRLLTLASRR-NH2 [TEM4.0] showed an MIC peptide in test [1] of 100 µg/mL. Also, in test [2], the MIC penicillin came to 1600 µg/mL.

Compound Ac-RIVVIYTTRRPRIVVIYTTRR-NH2 [TEM7.0] had an MIC peptide in test [1] of more than 100 µg/mL. Further, in test [2], the MIC penicillin stood at 1600 µg/mL.

As to Colistin, the Interpretation entry in [4], in test [5], in test [6], in [7], in test [8] and in test [9] was “S” in each case. In addition, the Interpretation entry in test [10] and in [11] was “S” in each case. Besides, the MIC in test [4], in [5], in test [6], in [7], in [8] and in [9] was not above 0.5 µg/mL throughout. Further, the minimal inhibitory concentration (MIC) in test [10] and in [11] was not above 0.5 µg/mL each time.

Turning to `CO/N=C(\C(=O)N[C@@H]1C(=O)N2C(C(=O)O)=C(COC(N)=O)CS[C@H]12)c1ccco1` [C ? xime], the Interpretation entry in test [4] was “R”; in test [5], “R”; in test [6], “R”; in test [7], “R”; in [8], “R”; in test [9], “S”. For the same compound, the Interpretation result in [10] and in test [11] was “R” in each case. In addition, the MIC in test [4] is not below 64 µg/mL; in test [5] it was not below 64 µg/mL; in test [6], not below 64 µg/mL; in [8], not below 64 µg/mL; in test [9] it was 4 µg/mL (≈ 9.43 µM); in test [10] it was not below 64 µg/mL. In addition, the MIC in test [11] is not below 64 µg/mL.

Regarding `O=C(O)C[C@@H]1CC[C@H](NC(=O)Cc2cccs2)B(O)O1` [vaborbactam], the “aggregation of the enzyme” value in test [3] was “reduce the aggregation of the enzyme in a dose-responsive manner”.

Take Ac-RLLLTTIGRRPRLLLTTIGRR-NH2 [TEM2.0]: in test [1], the MIC peptide was more than 100 µg/mL. The MIC penicillin in test [2] was 800 µg/mL.

With `CC(C)(O/N=C(\C(=O)N[C@@H]1C(=O)N2C(C(=O)[O-])=C(C[n+]3ccccc3)CS[C@H]12)c1csc(N)n1)C(=O)O` [C ? dime], the Interpretation entry is recorded as “R” in test [4]; “R” in test [5]; “R” in test [6]; “R” in [7]; “R” in test [8]; “S” in test [9]. The MIC is 16 µg/mL (≈ 29.3 µM) in [4]; not below 64 µg/mL in test [5]; not below 64 µg/mL in [6]; not below 64 µg/mL in [7]; 16 µg/mL (≈ 29.3 µM) in test [8]; not above 1 µg/mL in [9]. Further, the MIC in test [10] and in test [11] was not above 1 µg/mL throughout.
